In assay [1] the target is T1, Hyg17 (Streptomyces leeuwenhoekii, UniProt A0A0F7VN41).
T1 construct: cloned NdeI/XhoI in pTip-QC1, expressed in Rhodococcus jostii RHA1, Ni-NTA and size exclusion; primers encode N-terminus MTVAVVG and C-terminus SVPVAP before LE (XhoI)
Kind of assay: NADH formation, absorbance at […] nm, initial rates […]-5 min. The settings on record: 100 mM CAPS, 50 mM NaCl, pH 10.5, 25 °C. Format: biochemical.

The target in assay [2] is T2, BsIDH (Bacillus subtilis, UniProt P26935).
T2 construct: gene iolG; codon-optimised synthetic gene in pET28a, expressed in E. coli BL21 star (DE3), Ni-NTA and size exclusion
Kind of assay: thin-layer chromatography of ketone product. It counts as biochemical. The following applies: 10 mM myo-inositol, 10 mM NAD+, 100 mM CAPS, 50 mM NaCl, pH 10.5.

T1 sequence (A0A0F7VN41 whole entry): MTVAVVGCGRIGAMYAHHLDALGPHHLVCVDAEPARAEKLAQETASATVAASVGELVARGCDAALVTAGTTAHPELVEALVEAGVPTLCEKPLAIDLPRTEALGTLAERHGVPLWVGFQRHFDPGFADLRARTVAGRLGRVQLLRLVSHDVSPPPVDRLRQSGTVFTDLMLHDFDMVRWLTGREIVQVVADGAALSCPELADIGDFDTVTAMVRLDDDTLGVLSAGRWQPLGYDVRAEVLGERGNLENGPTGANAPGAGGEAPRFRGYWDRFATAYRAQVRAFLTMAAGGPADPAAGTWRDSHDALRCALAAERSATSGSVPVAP
T2 sequence (P26935 whole entry): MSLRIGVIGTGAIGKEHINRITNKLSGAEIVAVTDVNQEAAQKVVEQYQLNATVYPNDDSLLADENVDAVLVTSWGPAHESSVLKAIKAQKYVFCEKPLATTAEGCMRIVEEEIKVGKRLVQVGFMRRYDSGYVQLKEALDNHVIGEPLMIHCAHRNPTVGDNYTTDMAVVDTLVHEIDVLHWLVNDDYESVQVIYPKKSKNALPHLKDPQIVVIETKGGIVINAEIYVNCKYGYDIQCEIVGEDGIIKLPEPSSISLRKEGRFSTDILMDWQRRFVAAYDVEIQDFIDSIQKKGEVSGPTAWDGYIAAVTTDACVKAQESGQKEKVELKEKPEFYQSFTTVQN

Consider `NC(=O)c1ccc[n+]([C@@H]2O[C@H](COP(=O)(O)OP(=O)(O)OC[C@H]3O[C@@H](n4cnc5c(N)ncnc54)[C@H](O)[C@@H]3O)[C@@H](O)[C@H]2O)c1` [NAD^+], for which the Michaelis constant (Km) in assay [1] (10 mM myo-inositol) was 4.2 ± 0.49 mM.

Consider `O[C@H]1[C@H](O)[C@@H](O)[C@H](O)[C@@H](O)[C@H]1O` [myo-inositol], for which the “thin-layer chromatography of ketone product” value in assay [2] is on record as “We found that both enzymes generated a ketone product with identical retention factors”. In addition, the Michaelis-Menten constant (Km) in assay [1] (10 mM NAD+) is 9 ± 1.1 mM.

For the compound `O[C@H]1[C@H](O)[C@@H](O)[C@H](O)[C@@H](O)[C@@H]1O` [scyllo-inositol], the Km in assay [1] (10 mM NAD+) came out at 20.3 ± 3.3 mM.
